Results taken from US20040076668A1, “Controlled-release pharmaceutical formulations” (Pfizer Inc., priority 2002, published 2004).
Read-outs that look alike come from different tables or passages of the source.

What was measured:
[1] = Dissolution as a function of dissolution media pH; type: physicochemical; settings: at the lower pH (simulated gastric fluid pH 1.2); sink conditions cannot be maintained
Description: In order to determine the amount of compound (I) dissolved in simulated gastric fluid at pH 1.2, the amount remaining in the formulations was assayed and subtracted from the amount initially present. This procedure was employed because, at the lower pH, the solubility of compound (I) is lower and sink conditions cannot be maintained during dissolution. [formula] [formula]

[2] = Human in vivo oral dosage escalation studies: nausea and emesis side-effects; settings: human, in vivo, immediate-release formulations, human
Description: (§1) In Tables 13 and 14, standard deviation values are reported parenthetically. Furthermore, a “Yes” entry means greater than half of the subjects experienced the indicated side-effect, while a “No” entry indicates none, or less than half, of the subjects experienced the indicated side-effect.
(§2) The 3 mg dosages of compound (I) indicated in Tables 13 and 14 comprised the simultaneous administration of three 1 mg tablets of the SCT formulations of the present invention. Likewise, the 30 mg dosages of compound (I) comprised the simultaneous administration of three 10 mg tablets of the SCT formulations of the present invention.
(§3) The OPC immediate-release formulations comprising compound (I) were prepared extemporaneously by diluting powdered sodium citrate with water to a final concentration of 0.02 M and dissolving compound (I) therein with stirring. The prepared solution was then orally administered to the subject.
(§4) Analysis of such data will establish the relationship between the plasma pharmacokinetics and nausea and emesis side-effects in human subjects administered with dosages of compound (I). At Cmax values of less than 60 ng/mL, compound (I) was generally well tolerated. […] Dosages of compound (I) greater than 10 mg in the fasted state, and 30 mg in the fed state, could not be successfully administered due to the severity of the resulting nausea and emesis.
(§5) In some subjects given the 30 mg dosage in the fed state, the peak concentrations were in excess of 250 ng/mL, with the mean being 198 ng/mL. Predicated upon a Cmax threshold of 200 ng/mL for emesis, a much higher incidence of emesis would have been predicted to occur at this dosage.

human subjects = test: as above; settings: for dosages that could not be successfully administered due to the severity of nausea and emesis: immediate-release, human
Description: as §1, §2, §3, §4, §5

[3] = concluded from the IR formulation data

C[C@@H](Oc1ccc(CNC(=O)c2cccnc2Oc2ccc3c(c2)OCO3)c(F)c1)C(=O)O [Compound (I), (R)-2-[4-({[2-(Benzo[1,3]dioxol-5-yloxy)-pyridine-3-carbonyl]-amino}-methyl)-3-fluoro-phenoxy]-propionic Acid]
solubility of compound (I) [1]: lower | Cmax ([2]; read-out: threshold for emesis (Cmax)): ~200 ng/mL | Cmax ([2]; read-out: threshold for nausea (Cmax)): ~60 ng/mL | Cmax/Tmax ratio that will maintain a low incidence for emesis (human subjects; [3]): less than 100 ng/ml/hr | Cmax/Tmax ratio that will maintain a low incidence of nausea (human subjects; [3]): less than 40 ng/ml/hr | dosages that could not be successfully administered due to the severity of nausea and emesis (human subjects; fasted state): greater than 10 mg | dosages that could not be successfully administered due to the severity of nausea and emesis (human subjects; fed state): > 30 mg
